Where a SMILES comes first, the peptide text is derived from it.
How the values were obtained:
S. aureus strain 8325-4 [1] = conditions: strain 8325-4, 500
[2] = tested on: P. aeruginosa clinical isolates; format: cell-based, Pseudomonas aeruginosa; conditions: four independent clinical isolates
From the text: P. aeruginosa ATCC 27853 (American Type Culture Collection, Rockville, Md.) is the strain used for testing antimicrobial activity against P. aeruginosa unless otherwise noted. It is a standardized strain for antibiotic-susceptibility testing of pseudomonads (see, e.g., Code of Federal Regulations, Title 21, Part 460, 1987). […] Agents effective against P. aeruginosa are needed in the art because multiple antibiotic resistance is quite common among clinical strains, and therefore resultant infections are often difficult to treat.
^1 3-5 × 10^7 CFU/ml of the designated strains were exposed
to 500 μg/ml of HPLCpurified peptides in 1/100 strength BHSS (10 mm
sodium phosphate, pH 7.0, 10 mM NaCl.

P. aeruginosa ATCC 27853 = conditions: Table 7A; RP-HPLC-purified peptides 500 μg/ml
[3] = tested on: N. gonorrhoeae strain FA 102
S. aureus strain 8325-4 [4] = conditions: for % Survival of S. aureus: Table 3, all peptides at 5×10^-4 M
P. aeruginosa = experiment: Bactericidal capacity of cathepsin G in 1% TSB, P. aeruginosa; format: cell-based, Pseudomonas aeruginosa; conditions: Table 11, 50 μg/ml, 2 h at 37° C.
S. aureus = format: cell-based, Staphylococcus aureus; conditions: Table 11; 50 μg/ml; 1% TSB, 2 h at 37° C.

## CC[C@H](C)[C@H](NC(=O)[C@H](Cc1c[nH]c2ccccc12)NC(=O)[C@@H]1CCCN1C(=O)[C@H](CC(C)C)NC(=O)[C@H](Cc1ccccc1)NC(=O)[C@H](CO)NC(=O)[C@H](CO)NC(=O)[C@@H](NC(=O)[C@H](Cc1ccccc1)NC(=O)[C@H](CCCNC(=N)N)NC(=O)[C@@H](NC(=O)[C@H](Cc1ccccc1)NC(=O)[C@@H](NC(=O)[C@H](CCC(=O)O)NC(=O)[C@@H]1CCCN1C(=O)[C@@H]1CCCN1C(=O)[C@@H](NC(=O)CNC(=O)[C@H](CO)NC(=O)[C@H](CO)NC(=O)[C@H](CCCCN)NC(=O)CN)C(C)C)C(C)C)[C@@H](C)O)C(C)C)C(=O)N[C@@H](CCCNC(=N)N)C(=O)N[C@H](C(=O)N[C@H](C(=O)N[C@@H](CCSC)C(=O)N[C@@H](CCCNC(=N)N)C(=O)O)[C@@H](C)O)[C@@H](C)O [CG 198-223] (H-GKSSGVPPEVFTRFVSSFLPWIRTTMR-OH; N-terminus and C-terminus assumed)
S. aureus strain 8325-4 [1]
  Log Kill (500 μg/ml) S. aureus strain 8325-4: 0.26 log
[2]
  killing of P. aeruginosa clinical strains (in words): some variability in effectiveness
P. aeruginosa ATCC 27853
  Log Kill (500 μg/ml) P. aeruginosa ATCC 278533: 5.73 log

## O=C(N[C@H](CO)[C@H](O)c1ccc([N+](=O)[O-])cc1)C(Cl)Cl [Chloramphenicol, reference compound]
[3]; N. gonorrhoeae strain FA 102, each compound 5.0×10^-4 M, 30 min at 37° C., FIG. 5
  bactericidal capacity compared with antibiotics and defensin pool (in words): more effective at this concentration than the defensin pool or the test peptides

## N=C(N)NCCC[C@H](NC(=O)[C@H](CCC(N)=O)NC(=O)[C@H](CC(N)=O)NC(=O)[C@H](Cc1ccc(O)cc1)NC(=O)[C@H](CCC(N)=O)NC(=O)[C@@H]1CCCN1C(=O)[C@@H](N)Cc1c[nH]cn1)C(=O)O [HPQYNQR] (H-HPQYNQR-OH)
[3]
  ED50 for N. gonorrhoeae: 50 µM

## H^Benzyl PQYNQR
S. aureus strain 8325-4 [4]
  % Survival of S. aureus: 99.0%

## H^Dnp PQYNQR
S. aureus strain 8325-4 [4]
  % Survival of S. aureus: 102.2%

## enzymatically active Cat G: cathepsin G purified from extracts of human PMN granules
S. aureus strain 8325-4 [4]; HBSS, optimal conditions
  ED50 for S. aureus: 4 µM
P. aeruginosa
  Log Reduction in CFU/ml P. aeruginosa: 2.41 log
S. aureus
  Log Reduction in CFU/ml S. aureus: 2.82 log

Source: patent publication US5798336A, “Antimicrobial peptides” (priority 1995, dated 1998)
